Columns and labels:
[1] = molecular target: T1, Kappa-type opioid receptor (Homo sapiens, UniProt P41145); test: Agonist activity at human kappa opioid receptor expressed in CHO-K1 cells assessed as inhibition of forskolin-stimulated cAMP accumulation by HitHunter assay based luminescence analysis; type: functional, cell-based
[2] = molecular target: T2, Alpha-2A adrenergic receptor (Homo sapiens, UniProt P08913); test: Binding affinity to alpha2A adrenergic receptor (unknown origin) by radioligand displacement assay
T2 sequence (P08913 whole entry): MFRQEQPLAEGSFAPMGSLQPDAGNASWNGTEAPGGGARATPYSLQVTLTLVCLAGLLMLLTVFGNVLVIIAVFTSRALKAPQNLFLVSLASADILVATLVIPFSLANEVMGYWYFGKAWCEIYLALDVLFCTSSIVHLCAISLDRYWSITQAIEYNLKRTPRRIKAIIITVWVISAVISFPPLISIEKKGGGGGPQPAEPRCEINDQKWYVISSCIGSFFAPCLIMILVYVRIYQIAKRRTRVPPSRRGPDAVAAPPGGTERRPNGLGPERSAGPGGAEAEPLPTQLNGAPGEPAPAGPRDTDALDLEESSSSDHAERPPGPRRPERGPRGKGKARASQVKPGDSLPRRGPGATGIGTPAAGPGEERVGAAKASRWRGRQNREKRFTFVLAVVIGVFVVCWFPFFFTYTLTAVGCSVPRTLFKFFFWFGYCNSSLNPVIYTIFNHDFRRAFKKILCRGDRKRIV

[3] = molecular target: T1, Kappa-type opioid receptor; test: Displacement of [3H]U69593 from kappa opioid receptor (unknown origin) expressed in human U2OS cell membrane by competitive radioligand binding assay; type: cell membranes
[4] = molecular target: Voltage-gated inwardly rectifying potassium channel KCNH2 (Homo sapiens, UniProt Q12809); test: Binding affinity to hERG by radioligand displacement assay; type: toxicity
[5] = molecular target: Sodium-dependent noradrenaline transporter (Homo sapiens, UniProt P23975)
[6] = molecular target: T3, Alpha-1B adrenergic receptor (Homo sapiens, UniProt P35368); test: Binding affinity to alpha1B adrenergic receptor (unknown origin) by radioligand displacement assay
T3 sequence (P35368 whole entry): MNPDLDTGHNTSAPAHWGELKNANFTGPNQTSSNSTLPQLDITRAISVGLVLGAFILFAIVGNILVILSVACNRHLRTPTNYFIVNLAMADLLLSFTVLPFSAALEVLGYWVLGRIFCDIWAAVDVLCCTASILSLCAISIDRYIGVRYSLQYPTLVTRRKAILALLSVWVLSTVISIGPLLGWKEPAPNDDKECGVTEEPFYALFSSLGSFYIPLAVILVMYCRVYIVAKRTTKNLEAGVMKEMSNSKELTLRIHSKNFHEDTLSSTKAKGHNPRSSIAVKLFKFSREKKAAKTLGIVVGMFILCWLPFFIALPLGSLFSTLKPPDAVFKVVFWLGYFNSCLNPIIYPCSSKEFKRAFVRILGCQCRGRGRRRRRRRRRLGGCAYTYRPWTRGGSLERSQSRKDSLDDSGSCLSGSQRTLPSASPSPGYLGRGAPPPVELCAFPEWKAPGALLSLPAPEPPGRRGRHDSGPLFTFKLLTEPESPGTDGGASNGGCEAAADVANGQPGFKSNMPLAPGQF

Which EC50 [1] does the source give for `C/C=C1/CN2CC[C@]34C(=C(C(=O)OC)[C@H]1C[C@H]23)Nc1ccc(I)cc14` here?
Its EC50 is 5.7 nM.

What about the Ki [2] of the same compound?
Its Ki is 732 nM.

What about the Ki [3] of the same compound?
The Ki was 0.087 nM.

What about the Ki [4] of the same compound?
Its Ki is 1100 nM.

And the Ki [5]?
The Ki was 3440 nM.

What about the Ki [6] of the same compound?
Its Ki is 2020 nM.
